Assays:
[1] = tested on: S. aureus ATCC 1707 (MRSA); assay: Broth microdilution MIC and growth inhibition; assay type: cell-based, Staphylococcus aureus
Description: (§1) Bacteria strains. S. aureus NCTC 12493 (MRSA), S. aureus ATCC 29213 (MSSA), S. aureus ATCC 43300 (MRSA), S. aureus ATCC 1707 (MRSA), S. aureus ATCC 1717 (MRSA), S. aureus ATCC 1747 (MRSA), S. aureus ATCC 1761 (MRSA), S. aureus ATCC 1766 (MRSA), S. aureus ATCC 1768 (MRSA), S. epidermidis ATCC 35984, E. coli ATCC 25922, K. pneumoniae ATCC 13883, P. mirabilis ATCC 25933, S. enterica ATCC 14028 and P. aeruginosa ATCC 10145 strains were used in this study. Bacteria were initially inoculated onto tryptone soy agar with 5% defibrinated sheep blood (Thermo Fisher Scientific, Inc., Waltham, MA, USA) and incubated at 37° C. for 24 hours. Then, single colonies of each strain were transferred to tryptone soy broth (Thermo Fisher Scientific) for the nuclease activity assay or antimicrobial susceptibility testing, respectively.
(§2) Antimicrobial susceptibility testing. Minimal inhibitory concentrations (MIC) of all nucleoside analogues and TOUCANs against each bacteria strain were determined using broth microdilution method. A single colony obtained from overnight culture on tryptone soy agar with 5% defibrinated sheep blood was inoculated in cation-adjusted Mueller Hinton Broth and adjusted to 10^6 CFU/mL. TOUCANs were prepared in PBS+/+ (treatment) and serial dilutions were made in 96-well polystyrene round bottom microwell plates with 50 μL final volume for each concentration. PBS+/+ was used as untreated control. Next, 50 μL bacteria solutions were added to each well to a final bacteria concentration of 5×10^5 CFU/mL. Plates were incubated at 37° C. in Cytation 1 Cell Imaging Multimode Reader. Growth curves were obtained by measuring optical densities at 600 nm every 10 minutes for 18 hours using Cytation 1 Cell Imaging Multimode Reader. In addition, visual inspection of the plates was carried out after 18 hours and photographs were taken. MICs were defined as the lowest drug concentration in the microwell at which bacterial growth was not visible at the end of the incubation period. Besides MIC determination, specificity of TOUCAN 7mGe was also shown with subcultures on chromogenic media. For this purpose, 5 μL of different concentrations of each strain were inoculated onto CHROM agar Orientation Media (Becton Dickinson) and the bacterial growth of each bacteria strain tested was observed by naked eye after incubation at 37° C. for 24 hours. Finally, photographs of the chromogenic media were taken.

[2] = tested on: S. aureus ATCC 1717 (MRSA); assay: Broth microdilution MIC and growth inhibition; assay type: cell-based, Staphylococcus aureus
Description: as §1, §2

[3] = tested on: S. aureus ATCC 1747 (MRSA); assay: Broth microdilution MIC and growth inhibition; assay type: cell-based, Staphylococcus aureus
Description: as §1, §2

[4] = tested on: S. aureus ATCC 1761 (MRSA); assay: Broth microdilution MIC and growth inhibition; assay type: cell-based, Staphylococcus aureus
Description: as §1, §2

[5] = tested on: S. aureus ATCC 1766 (MRSA); assay: Broth microdilution MIC and growth inhibition; assay type: cell-based, Staphylococcus aureus; details: S. aureus ATCC 1766 (MRSA)
Description: as §1, §2

[6] = tested on: S. aureus ATCC 1768 (MRSA); assay: Broth microdilution MIC and growth inhibition; assay type: cell-based, Staphylococcus aureus
Description: as §1, §2

[7] = tested on: S. aureus ATCC 29213 (MSSA); assay: Broth microdilution MIC and growth inhibition; assay type: cell-based, Staphylococcus aureus; details: S. aureus ATCC 29213 (MSSA)
Description: as §1, §2

[8] = tested on: S. aureus ATCC 43300 (MRSA); assay: Broth microdilution MIC and growth inhibition; assay type: cell-based, Staphylococcus aureus
Description: as §1, §2

[9] = tested on: S. aureus NCTC 12493 (MRSA); assay: Broth microdilution MIC and growth inhibition; assay type: cell-based, Staphylococcus aureus; details: for growth inhibition, dose response: NCTC-12493 (MRSA), FIG. 5a-b
Description: as §1, §2

[10] = tested on: S. epidermidis ATCC 35984; assay: Broth microdilution MIC and growth inhibition (control bacteria); assay type: cell-based, Staphylococcus epidermidis
Description: as §1, §2

[11] = tested on: E. coli ATCC 25922; assay: as above; assay type: cell-based, Escherichia coli
Description: as §1, §2

[12] = tested on: K. pneumoniae ATCC 13883; assay: as above; assay type: cell-based
Description: as §1, §2

[13] = tested on: P. aeruginosa ATCC 10145; assay: as above; assay type: cell-based
Description: as §1, §2

[14] = tested on: S. enterica ATCC 14028; assay: as above; assay type: cell-based
Description: as §1, §2

[15] = tested on: P. mirabilis ATCC 25933; assay: as above; assay type: cell-based, Proteus mirabilis
Description: as §1, §2

[16] = tested on: S. aureus; assay: Growth inhibition curves / MICs in S. aureus cultures (strain not named or summary over strains); assay type: cell-based, Staphylococcus aureus
Procedure: as §2

[17] = tested on: S. aureus; assay: Specificity study by visual inspection on chromogenic media, targeted bacteria; assay type: cell-based, Staphylococcus aureus; details: FIG. 1e
Procedure: as §2, with “For this purpose, 5 μL of different concentrations of each strain were inoculated onto CHROM agar Orientation Media (Becton Dickinson) and the bacterial growth of each bacteria strain tested was observed by naked eye after incubation at 37° C. for 24 hours. Finally, photographs of the chromogenic media were taken.” left out

[18] = tested on: other pathogenic bacteria; assay: Specificity study by visual inspection on chromogenic media, non-targeted control bacteria; assay type: cell-based; details: all concentrations tested, FIG. 1e
Procedure: as §2, with “For this purpose, 5 μL of different concentrations of each strain were inoculated onto CHROM agar Orientation Media (Becton Dickinson) and the bacterial growth of each bacteria strain tested was observed by naked eye after incubation at 37° C. for 24 hours. Finally, photographs of the chromogenic media were taken.” left out

[19] = tested on: Pancreatic cancer cells (ASPC-1); assay: Anti-cancer drug susceptibility testing, pancreatic cancer cells, 72 h; assay type: cell-based; details: 72 h cultures; Gemcitabine alone, TOUCAN 7mGe spiked with MN; FIG. 13
Procedure: (§3) Anti-cancer drug susceptibility testing for TOUCAN 7mGe. Gemcitabine and equivalent 7mGe solutions were prepared as explained before. Then, 7mGe was pre-exposed to 10 μl of 10 U MN for 1 hour at 37° C. (7mGe+MN). 100 μl of both drugs (Gemcitabine and 7mGe+MN) were added to the related wells and serially diluted using PBS+/+making the final concentrations between 100-2 μg/μl. Breast cancer cells (MDAMB231) and Pancreatic cancer cells (ASPC-1) were prepared as 10.000 cells/ml and 100 μl cell suspensions were added to each well. The plate was incubated at 37° C. for 72 hours. At 48th hour of incubation, 100 μl CyQUANT® Direct Cell Proliferation Assay kit was added to each well. Cell counts and images were taken at the end of 72 hours incubation period using Cytation 1 Cell Imaging Multi-Mode Reader.

[20] = tested on: Breast cancer cells (MDAMB231); assay: Anti-cancer drug susceptibility testing, breast cancer cells, 72 h; assay type: cell-based; details: 72 h of treatment; Gemcitabine alone, TOUCAN 7mGe spiked with MN; FIG. 14
Procedure: as §3

mU-mU-mU-mU-T-T-Ge [TOUCAN 7mGe]
MIC ([1]; 18 h, TOUCAN as NA equivalent): >40 µg/mL | TOUCAN % Growth inhibition ([1]; mean ± SD, n = 3): 61.5 ± 0.5% | MIC ([2]; 18 h, TOUCAN as NA equivalent): >40 µg/mL | TOUCAN % Growth inhibition ([2]; mean ± SD, n = 3): 72.9 ± 1.2% | MIC ([3]; 18 h, TOUCAN as NA equivalent): >40 µg/mL | TOUCAN % Growth inhibition ([3]; mean ± SD, n = 3): 44.9 ± 0.7% | TOUCAN MIC/NA MIC TOUCAN Efficacy Ratio (TER) [4]: 2500 | MIC ([4]; 18 h, TOUCAN as NA equivalent): 40 µg/mL | TOUCAN % Growth inhibition ([4]; mean ± SD, n = 3): 90.1% | MIC ([5]; 18 h, TOUCAN as NA equivalent): >40 µg/mL | TOUCAN % Growth inhibition ([5]; mean ± SD, n = 3): 86.2 ± 0.9% | MIC ([6]; 18 h, TOUCAN as NA equivalent): >40 µg/mL | TOUCAN % Growth inhibition ([6]; mean ± SD, n = 3): 61.9 ± 1.1% | MIC ([7]; 18 h, TOUCAN as NA equivalent): >40 µg/mL | TOUCAN % Growth inhibition ([7]; mean ± SD, n = 3): 52.5 ± 1.1% | MIC ([8]; 18 h, TOUCAN as NA equivalent): >40 µg/mL | TOUCAN % Growth inhibition ([8]; mean ± SD, n = 3): 66.6 ± 1.6% | growth inhibition, dose response ([9]; 1.25 and 2.5 g/mL): partial effect | growth inhibition, dose response ([9]; concentrations from 5 to 40 μg/mL): 96% | TOUCAN MIC/NA MIC TOUCAN Efficacy Ratio (TER) ([9]; S. aureus NCTC 12493 (MRSA)): 1250 | MIC ([9]; S. aureus NCTC 12493 (MRSA), 18 h, TOUCAN as NA equivalent): 5 µg/mL | TOUCAN % Growth inhibition ([9]; S. aureus NCTC 12493 (MRSA), mean ± SD, n = 3): 85.3% | associated toxicity to non-targeted bacteria ([10]; S. epidermidis (control), FIG. 1d): minimal associated toxicity | MIC ([10]; S. epidermidis ATCC 35984, 18 h, TOUCAN as NA equivalent): >40 µg/mL | TOUCAN % Growth inhibition ([10]; S. epidermidis ATCC 35984, mean ± SD, n = 3): 3.6 ± 2.0% | growth inhibition, dose response ([10]; S. epidermidis, all concentrations tested, FIG. 5): No growth inhibition | MIC ([11]; 18 h, TOUCAN as NA equivalent): >40 µg/mL | TOUCAN % Growth inhibition ([11]; mean ± SD, n = 3): 0 ± 0.00% | MIC ([12]; 18 h, TOUCAN as NA equivalent): >40 µg/mL | TOUCAN % Growth inhibition ([12]; mean ± SD, n = 3): 4.9 ± 3.1% | MIC ([13]; 18 h, TOUCAN as NA equivalent): >40 µg/mL | TOUCAN % Growth inhibition ([13]; mean ± SD, n = 3): 0 ± 0.00% | MIC ([14]; 18 h, TOUCAN as NA equivalent): >40 µg/mL | TOUCAN % Growth inhibition ([14]; mean ± SD, n = 3): 12.5 ± 5.7% | MIC ([15]; 18 h, TOUCAN as NA equivalent): >40 µg/mL | TOUCAN % Growth inhibition ([15]; mean ± SD, n = 3): 8.3 ± 0.6% | growth inhibition ([16]; S. aureus (target), FIG. 1d): high growth inhibition | bacterial growth inhibition ([16]; S. aureus cultures, optical density (OD) over 18 h, FIG. 1b): 96% | inhibition of bacterial growth (therapeutic efficacy) ([16]; combinations of the R-S-D moieties, FIG. 1c): more than 99% | inhibition on chromogenic media ([17]; 5 μg/mL): partially inhibited | inhibition on chromogenic media ([17]; 10 and 20 μg/mL): completely inhibited | viability on chromogenic media [18]: remained viable | killing of pancreatic cancer cells (viability) [19]: efficient in killing | therapeutic effect in breast cancer cells (viability) [20]: slightly higher

Reference: patent publication US20250269039A1, “THERAPEUTIC-OLIGONUCLEOTIDES ACTIVATED BY NUCLEASES” (priority 2020, published 2025)
